Laboratory results reported in patent US11370798B2 (Vertex Pharmaceuticals Incorporated, priority 2012, dated 2022).
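Note: Test-compound concentration that lowers the Cisplatin IC50 by a set fold.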

The compounds below were run on HCT116 colorectal cancer cells (assay: Cisplatin sensitization assay (96 h cell viability MTS)). Conditions: compound and Cisplatin added simultaneously, Cisplatin sensitization value.
Format: cell-based
Method in brief: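 Compound and cisplatin added together as a full matrix of 2-fold serial dilutions from a top final concentration of 10 μM; cells incubated 96 h at 37° C, 5% CO2. Viability then read by MTS after 1 h further incubation; sensitization value reported in μM bins.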
In the case of `CNC1CCN(c2ccncc2NC(=O)c2c(N)nn3cc(Cl)cnc23)CC1` [I-N-87, 2-amino-6-chloro-N-(4-(4-(methylamino)piperidin-1-yl)pyridin-3-yl)pyrazolo[1,5-a]pyrimidine-3-carboxamide], the “Cisplatin Sensitization Assay” value is reported as “++ (Cisplatin sensitization value>0.02 μM but <0.2 μM)”.
With `Nc1nn2cc(Cl)cnc2c1C(=O)Nc1cnccc1N1CCNCC1` [I-N-88, 2-amino-6-chloro-N-(4-(piperazin-1-yl)pyridin-3-yl)pyrazolo[1,5-a]pyrimidine-3-carboxamide] the “Cisplatin Sensitization Assay” value was “++ (Cisplatin sensitization value>0.02 μM but <0.2 μM)”.
`N#CCc1cnc2c(C(=O)Nc3cnccc3N3CCNCC3)c(N)nn2c1` [I-N-89, 2-amino-6-(cyanomethyl)-N-(4-(piperazin-1-yl)pyridin-3-yl)pyrazolo[1,5-a]pyrimidine-3-carboxamide] was tested, and the “Cisplatin Sensitization Assay” value was “++ (Cisplatin sensitization value>0.02 μM but <0.2 μM)”.
With `N#CCc1cnc2c(C(=O)Nc3cnccc3N3CCOC(CN)C3)c(N)nn2c1` (stereo not drawn) [I-N-90, 2-amino-N-(4-(2-(aminomethyl)morpholino)pyridin-3-yl)-6-(cyanomethyl)pyrazolo[1,5-a]pyrimidine-3-carboxamide] the “Cisplatin Sensitization Assay” value was “+ (Cisplatin sensitization value>0.2 μM but <5 μM)”.
In the case of `NCC1CCN(c2ccncc2NC(=O)c2c(N)nn3cc(Cl)cnc23)CC1` [I-N-91, 2-amino-N-(4-(4-(aminomethyl)piperidin-1-yl)pyridin-3-yl)-6-chloropyrazolo[1,5-a]pyrimidine-3-carboxamide], the “Cisplatin Sensitization Assay” value is reported as “++ (Cisplatin sensitization value>0.02 μM but <0.2 μM)”.
`Nc1nn2cc(F)cnc2c1C(=O)Nc1cncc(F)c1N1CCC(C(=O)O)CC1` [I-N-92, 1-(3-(2-amino-6-fluoropyrazolo[1,5-a]pyrimidine-3-carboxamido)-5-fluoropyridin-4-yl)piperidine-4-carboxylic acid] was tested, and the “Cisplatin Sensitization Assay” value was “+ (Cisplatin sensitization value>0.2 μM but <5 μM)”.
`CN(C)C1CN(C2CCN(c3ccncc3NC(=O)c3c(N)nn4cc(Cl)cnc34)CC2)C1` [I-N-94, 2-amino-6-chloro-N-(4-(4-(3-(dimethylamino)azetidin-1-yl)piperidin-1-yl)pyridin-3-yl)pyrazolo[1,5-a]pyrimidine-3-carboxamide] was tested, and the “Cisplatin Sensitization Assay” value was “+++ (Cisplatin sensitization value of <0.02 μM)”.
For `COC1CCN(C2CCN(c3ccncc3NC(=O)c3c(N)nn4cc(Cl)cnc34)CC2)C1` (stereo not drawn) [I-N-95, 2-amino-6-chloro-N-(4-(4-(3-methoxypyrrolidin-1-yl)piperidin-1-yl)pyridin-3-yl)pyrazolo[1,5-a]pyrimidine-3-carboxamide], the “Cisplatin Sensitization Assay” value was “++ (Cisplatin sensitization value>0.02 μM but <0.2 μM)”.
In the case of `CN1CCN(C2CCN(c3ccncc3NC(=O)c3c(N)nn4cc(Cl)cnc34)CC2)CC1` [I-N-97, 2-amino-6-chloro-N-(4-(4-(4-methylpiperazin-1-yl)piperidin-1-yl)pyridin-3-yl)pyrazolo[1,5-a]pyrimidine-3-carboxamide], the “Cisplatin Sensitization Assay” value is reported as “+++ (Cisplatin sensitization value of <0.02 μM)”.
For `Nc1nn2cc(Cl)cnc2c1C(=O)Nc1cnccc1N1CCC(N2CC[C@@H](F)C2)CC1` [I-N-98, (R)-2-amino-6-chloro-N-(4-(4-(3-fluoropyrrolidin-1-yl)piperidin-1-yl)pyridin-3-yl)pyrazolo[1,5-a]pyrimidine-3-carboxamide], the “Cisplatin Sensitization Assay” value was “+++ (Cisplatin sensitization value of <0.02 μM)”.
In the case of `Nc1nn2cc(Cl)cnc2c1C(=O)Nc1cnccc1N1CCC(N2CCC3(COC3)C2)CC1` [I-N-99, N-(4-(4-(2-oxa-6-azaspiro[3.4]octan-6-yl)piperidin-1-yl)pyridin-3-yl)-2-amino-6-chloropyrazolo[1,5-a]pyrimidine-3-carboxamide], the “Cisplatin Sensitization Assay” value is reported as “+++ (Cisplatin sensitization value of <0.02 μM)”.
For `Nc1nn2cc(Cl)cnc2c1C(=O)Nc1cnccc1N1CCC(N2CC[S+]([O-])CC2)CC1` [I-N-100, 2-amino-6-chloro-N-(4-(4-(1-oxidothiomorpholino)piperidin-1-yl)pyridin-3-yl)pyrazolo[1,5-a]pyrimidine-3-carboxamide], the “Cisplatin Sensitization Assay” value was “++ (Cisplatin sensitization value>0.02 μM but <0.2 μM)”.
`Nc1nn2cc(Cl)cnc2c1C(=O)Nc1cnccc1N1CCC(N2CCn3cncc3C2)CC1` [I-N-101, 2-amino-6-chloro-N-(4-(4-(5,6-dihydroimidazo[1,5-a]pyrazin-7(8H)-yl)piperidin-1-yl)pyridin-3-yl)pyrazolo[1,5-a]pyrimidine-3-carboxamide] was tested, and the “Cisplatin Sensitization Assay” value was “++ (Cisplatin sensitization value>0.02 μM but <0.2 μM)”.
With `Nc1nn2cc(Cl)cnc2c1C(=O)Nc1cnccc1N1CCC(N2CCn3ccnc3C2)CC1` [I-N-102, 2-amino-6-chloro-N-(4-(4-(5,6-dihydroimidazo[1,2-a]pyrazin-7(8H)-yl)piperidin-1-yl)pyridin-3-yl)pyrazolo[1,5-a]pyrimidine-3-carboxamide] the “Cisplatin Sensitization Assay” value was “++ (Cisplatin sensitization value>0.02 μM but <0.2 μM)”.
With `Nc1nn2cc(Cl)cnc2c1C(=O)Nc1cnccc1N1CCC(N2CC[C@H](F)C2)CC1` [I-N-103, (S)-2-amino-6-chloro-N-(4-(4-(3-fluoropyrrolidin-1-yl)piperidin-1-yl)pyridin-3-yl)pyrazolo[1,5-a]pyrimidine-3-carboxamide] the “Cisplatin Sensitization Assay” value was “+++ (Cisplatin sensitization value of <0.02 μM)”.
With `Nc1nn2cc(Cl)cnc2c1C(=O)Nc1cnccc1N1CCC(N2CCOCC2)CC1` [I-N-104, 2-amino-6-chloro-N-(4-(4-morpholinopiperidin-1-yl)pyridin-3-yl)pyrazolo[1,5-a]pyrimidine-3-carboxamide] the “Cisplatin Sensitization Assay” value was “+++ (Cisplatin sensitization value of <0.02 μM)”.
With `Nc1nn2cc(Cl)cnc2c1C(=O)Nc1cnccc1N1CCC(N2CCCC2)CC1` [I-N-105, 2-amino-6-chloro-N-(4-(4-(pyrrolidin-1-yl)piperidin-1-yl)pyridin-3-yl)pyrazolo[1,5-a]pyrimidine-3-carboxamide] the “Cisplatin Sensitization Assay” value was “+++ (Cisplatin sensitization value of <0.02 μM)”.
In the case of `CN(C)C1CCN(C2CCN(c3ccncc3NC(=O)c3c(N)nn4cc(Cl)cnc34)CC2)C1` (stereo not drawn) [I-N-106, 2-amino-6-chloro-N-(4-(4-(3-(dimethylamino)pyrrolidin-1-yl)piperidin-1-yl)pyridin-3-yl)pyrazolo[1,5-a]pyrimidine-3-carboxamide], the “Cisplatin Sensitization Assay” value is reported as “+++ (Cisplatin sensitization value of <0.02 μM)”.
With `COC1CN(C2CCN(c3ccncc3NC(=O)c3c(N)nn4cc(Cl)cnc34)CC2)C1` [I-N-107, 2-amino-6-chloro-N-(4-(4-(3-methoxyazetidin-1-yl)piperidin-1-yl)pyridin-3-yl)pyrazolo[1,5-a]pyrimidine-3-carboxamide] the “Cisplatin Sensitization Assay” value was “+++ (Cisplatin sensitization value of <0.02 μM)”.
For `Nc1nn2cc(Cl)cnc2c1C(=O)Nc1cnccc1N1CCC(N2CC(F)(F)C2)CC1` [I-N-108, 2-amino-6-chloro-N-(4-(4-(3,3-difluoroazetidin-1-yl)piperidin-1-yl)pyridin-3-yl)pyrazolo[1,5-a]pyrimidine-3-carboxamide], the “Cisplatin Sensitization Assay” value was “+++ (Cisplatin sensitization value of <0.02 μM)”.
In the case of `Nc1nn2cc(Cl)cnc2c1C(=O)Nc1cnccc1N1CCC(N2CCC23COC3)CC1` [I-N-109, N-(4-(4-(6-oxa-1-azaspiro[3.3]heptan-1-yl)piperidin-1-yl)pyridin-3-yl)-2-amino-6-chloropyrazolo[1,5-a]pyrimidine-3-carboxamide], the “Cisplatin Sensitization Assay” value is reported as “+++ (Cisplatin sensitization value of <0.02 μM)”.
